For data set [1], the target named is Potassium voltage-gated channel subfamily H member 2 (Homo sapiens, UniProt Q12809). Kind of data set: Inhibition of human ERG transfected in HEK293 cells assessed as reduction in channel current at -80 mV holding potential by whole-cell patch clamp method. (In general: The patch-clamp technique gives a direct electrical read-out from membranes.)
In another data set the target is T1, Cytochrome P450 2C8 (Homo sapiens, UniProt P10632).
T1 sequence (P10632 whole entry): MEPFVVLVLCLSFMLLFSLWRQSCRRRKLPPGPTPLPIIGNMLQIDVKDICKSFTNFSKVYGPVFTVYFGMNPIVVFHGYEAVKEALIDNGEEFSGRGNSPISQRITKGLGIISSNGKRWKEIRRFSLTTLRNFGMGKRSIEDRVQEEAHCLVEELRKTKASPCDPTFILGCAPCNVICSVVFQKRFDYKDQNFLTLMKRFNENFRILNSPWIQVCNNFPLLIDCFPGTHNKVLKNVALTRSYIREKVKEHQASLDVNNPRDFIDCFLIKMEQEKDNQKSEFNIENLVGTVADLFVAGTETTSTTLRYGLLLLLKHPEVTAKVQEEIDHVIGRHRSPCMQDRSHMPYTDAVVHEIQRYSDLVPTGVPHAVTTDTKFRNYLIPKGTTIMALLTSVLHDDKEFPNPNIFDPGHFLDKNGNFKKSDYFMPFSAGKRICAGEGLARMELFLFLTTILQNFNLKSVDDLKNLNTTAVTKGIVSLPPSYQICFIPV
Description: Inhibition of human liver microsome CYP2C8 using paclitaxel as substrate incubated for 20 mins by LC-MS/MS analysis.

A further data set has as its target T2, Cytochrome P450 1A2 (Homo sapiens, UniProt P05177).
T2 sequence (P05177 whole entry): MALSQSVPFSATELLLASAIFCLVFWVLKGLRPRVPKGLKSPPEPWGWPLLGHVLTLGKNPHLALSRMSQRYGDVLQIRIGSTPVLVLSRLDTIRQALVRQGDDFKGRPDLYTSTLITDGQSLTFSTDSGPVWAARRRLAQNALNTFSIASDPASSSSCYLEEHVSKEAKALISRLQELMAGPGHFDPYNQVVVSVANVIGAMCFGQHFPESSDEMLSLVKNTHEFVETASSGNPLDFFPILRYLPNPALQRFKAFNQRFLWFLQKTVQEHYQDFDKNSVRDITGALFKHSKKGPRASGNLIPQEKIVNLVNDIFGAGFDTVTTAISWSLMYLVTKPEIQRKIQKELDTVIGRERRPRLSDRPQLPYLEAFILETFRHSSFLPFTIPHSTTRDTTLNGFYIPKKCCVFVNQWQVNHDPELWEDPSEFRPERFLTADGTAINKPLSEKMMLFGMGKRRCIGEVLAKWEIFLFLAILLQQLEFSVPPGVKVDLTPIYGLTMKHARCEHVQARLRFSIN
Description: Inhibition of human liver microsome CYP1A2 using phenacetin as substrate incubated for 20 mins by LC-MS/MS analysis. Background: Liver microsomes are a subcellular fraction often used to study metabolism.

Another data set deals with Cytochrome P450 2D6 (Homo sapiens, UniProt P10635). Description: Inhibition of human liver microsome CYP2D6 using bufuralol as substrate incubated for 20 mins by LC-MS/MS analysis.
Cytochrome P450 2D6, sequence (P10635 whole entry): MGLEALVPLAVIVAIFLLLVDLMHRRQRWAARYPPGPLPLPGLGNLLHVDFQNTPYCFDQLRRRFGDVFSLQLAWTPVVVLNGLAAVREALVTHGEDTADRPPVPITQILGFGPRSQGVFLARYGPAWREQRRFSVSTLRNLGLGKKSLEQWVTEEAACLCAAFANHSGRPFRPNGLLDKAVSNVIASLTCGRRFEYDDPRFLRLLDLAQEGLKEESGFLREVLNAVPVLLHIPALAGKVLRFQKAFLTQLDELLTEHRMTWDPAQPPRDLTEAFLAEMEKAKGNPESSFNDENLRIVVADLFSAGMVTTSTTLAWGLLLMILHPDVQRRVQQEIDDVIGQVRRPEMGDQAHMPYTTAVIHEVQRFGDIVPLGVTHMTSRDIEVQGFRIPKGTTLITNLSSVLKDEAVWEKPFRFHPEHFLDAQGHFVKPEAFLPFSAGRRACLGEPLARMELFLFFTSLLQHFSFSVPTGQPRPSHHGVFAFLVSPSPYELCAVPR
The target of the next data set is Cytochrome P450 2C9 (Homo sapiens, UniProt P11712). Kind of data set: Inhibition of human liver microsome CYP2C9 using diclofenac as substrate incubated for 20 mins by LC-MS/MS analysis.
Cytochrome P450 2C9, sequence (P11712 whole entry): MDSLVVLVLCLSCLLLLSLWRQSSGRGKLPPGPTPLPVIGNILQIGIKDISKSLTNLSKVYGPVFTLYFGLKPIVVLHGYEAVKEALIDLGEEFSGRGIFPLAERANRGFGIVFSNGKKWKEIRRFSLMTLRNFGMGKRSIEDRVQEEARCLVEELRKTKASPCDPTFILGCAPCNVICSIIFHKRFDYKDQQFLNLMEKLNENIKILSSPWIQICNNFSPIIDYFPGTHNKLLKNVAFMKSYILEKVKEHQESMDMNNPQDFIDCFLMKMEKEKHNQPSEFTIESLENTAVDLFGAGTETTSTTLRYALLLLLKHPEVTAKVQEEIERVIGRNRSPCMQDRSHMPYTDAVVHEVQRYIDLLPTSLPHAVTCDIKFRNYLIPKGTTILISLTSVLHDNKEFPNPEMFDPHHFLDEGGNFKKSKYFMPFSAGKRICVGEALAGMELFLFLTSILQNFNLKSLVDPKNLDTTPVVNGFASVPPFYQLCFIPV

Bounds are passed on as bounds.

Potassium voltage-gated channel subfamily H member 2, sequence (Q12809 whole entry): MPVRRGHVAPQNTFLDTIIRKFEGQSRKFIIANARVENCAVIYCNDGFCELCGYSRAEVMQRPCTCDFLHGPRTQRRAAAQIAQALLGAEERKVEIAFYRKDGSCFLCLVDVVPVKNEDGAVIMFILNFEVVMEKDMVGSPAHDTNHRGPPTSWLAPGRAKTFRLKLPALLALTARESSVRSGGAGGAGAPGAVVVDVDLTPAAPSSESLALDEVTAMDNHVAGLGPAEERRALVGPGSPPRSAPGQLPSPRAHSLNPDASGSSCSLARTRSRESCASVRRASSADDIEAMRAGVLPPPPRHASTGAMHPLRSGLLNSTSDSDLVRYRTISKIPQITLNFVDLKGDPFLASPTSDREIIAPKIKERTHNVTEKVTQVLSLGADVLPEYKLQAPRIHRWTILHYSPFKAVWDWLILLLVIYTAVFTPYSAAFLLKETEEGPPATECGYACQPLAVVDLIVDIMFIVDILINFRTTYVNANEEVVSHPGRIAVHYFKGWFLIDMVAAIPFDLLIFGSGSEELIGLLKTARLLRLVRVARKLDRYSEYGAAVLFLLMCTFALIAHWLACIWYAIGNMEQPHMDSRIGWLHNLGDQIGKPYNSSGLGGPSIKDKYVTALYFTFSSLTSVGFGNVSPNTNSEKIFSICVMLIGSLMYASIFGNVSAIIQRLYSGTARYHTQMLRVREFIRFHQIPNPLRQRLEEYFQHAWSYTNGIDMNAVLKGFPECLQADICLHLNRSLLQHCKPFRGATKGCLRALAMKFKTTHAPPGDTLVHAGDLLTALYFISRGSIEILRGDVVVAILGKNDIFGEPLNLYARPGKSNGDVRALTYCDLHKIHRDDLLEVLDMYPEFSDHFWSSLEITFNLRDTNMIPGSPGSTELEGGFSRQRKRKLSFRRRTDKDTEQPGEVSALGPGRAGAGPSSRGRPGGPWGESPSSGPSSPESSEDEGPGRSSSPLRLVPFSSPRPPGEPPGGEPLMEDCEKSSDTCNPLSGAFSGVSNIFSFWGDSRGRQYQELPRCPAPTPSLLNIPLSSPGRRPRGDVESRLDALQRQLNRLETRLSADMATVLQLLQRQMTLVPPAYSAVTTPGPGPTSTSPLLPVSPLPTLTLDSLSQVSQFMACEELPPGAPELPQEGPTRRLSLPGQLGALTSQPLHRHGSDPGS

A word on the IC50: it is the concentration at which inhibition is half-maximal. With `NC[C@H](NC(=O)c1ccc(-c2ccc(C(F)(F)F)c(F)c2)[nH]1)c1nc(CO)cs1`, the IC50 in data set [1] is 3 µM; against Cytochrome P450 2C8 it was over 25 µM; on Cytochrome P450 1A2 it was over 25 µM; against Cytochrome P450 2D6, over 25 µM; against Cytochrome P450 2C9, over 25 µM.

These data come from BindingDB's records for doi:10.1016/j.ejmech.2018.04.062 (Lindsley F. Kimball Research Institute, 2018).
